Reference: patent US5356886A, “Antiviral phosphono-alken derivatives of purines” (Beecham Group p.l.c., priority 1990, dated 1994)
In brackets after ≈: the same amount, converted by molar mass. Like-named read-outs stand apart in the source and are kept apart here.

Assays:
Format in all cases: cell-based
FIV = assay: Test for Feline Immunodeficiency Virus (FIV Glasgow 8) in Crandell Feline Kidney cells; conditions: FIV Glasgow 8, Crandell Feline Kidney cells, 11-14 days, read-out: MIC (minimum concentration of drug inhibiting syncitial production)
Procedure: (§1) Drug stocks were diluted to the appropriate concentration, in medium (e.g. 10 mg/ml to 200 μg/ml). 150 μl of each drug was dispersed in triplicate, across the top row of a microtitre plate (150 μl of media for virus and cell control, vc and cc). 100 μl of medium was dispersed into all other wells. The wells were serially diluted moving down the plate, removing 50 μl from each well and transferring to the next row. 50 μl was discarded from the bottom wells.
(§2) Trypsinisation was carried out from a confluent cell monolayer of Crandell Feline Kidney cells, in 10% trypsin, followed by resuspension in media at 1×10^6 per ml, ensuring that a single cell suspension is achieved. (Media: 90% 1×RPMI, 25 mM hepes buffer; 10% Foetal calf serum; 2% Glutamine; 2% penecillin/streptomycin.)
(§3) FIV Glasgow 8 virus was diluted to 4× the required virus challenge in medium (40 TCID50 /ml). The virus infected medium was mixed with an equal volume of cell suspension, 100 μl of which was aliquoted into each well of the drug plate, except cell control. 100 μl of cell suspension at 5×10^4 per ml was added to the latter. This gives a final cell concentration of 2.5×10^4 per ml, and drug range 100-0.03 μg/ml. The plates were incubated at 37° C., 5% CO2 in an air humidified incabator for 11-14 days. The cells were fixed by immersing the plates in formoli saline (10% formaldehyde; 10% 1.5M NaCl; 80% water) for 1 hour minimum. The cells were stained with 10% crystal violet for 15 minutes.
(§4) The assay was scored by looking for presence of syncitia and, virus induced cytopathic effect in the cell monolayers, under a microscope. Results are given as the minimum concentration of drug inhibiting syncitial production, minimum inhibitory concentration, MIC.

HIV [1] = assay: HIV Suppression test, viral RNA (nucleic acid hybridisation) in peripheral human lymphocytes; conditions: Human immunodeficiency virus 1, Lymphocyte, 96 h; Concn. 10 μM; read-out: % Inhibition on Day 4 after infection, Viral RNA
Procedure: (§5) Peripheral human lymphocytes were prepared, cultivated, and harvested as above. Following the determination of the lymphocyte surface markers, unstimulated and mitogen stimulated cells were combined in a ratio of 1:2.
(§6) Under safety conditions these cells are infected with a standard preparation of HIV. The cells are sedimented by centrifugation. The supernatant was discarded and cells were resuspended in the HIV inoculum.
(§7) This inoculum is a liquid suspension of HIV-1 strain virus, pretested and adjusted to a titer that results in a synthesis of viral core protein p24 of >100 ng/ml at day four following infection of human lymphocytes according to the protocol.
(§8) 3×10^8 lymphocytes were resuspended in 1 ml HIV inoculum and incubated at 37° C. for 60 minutes. Subsequently, the cells were washed two times with 50 ml of culture medium and resuspended in culture medium containing 10 units/ml of human recombinant interleukin-2 to yield a cell concentration of 2×10^6 cells/ml. 100 μof this cell suspension was added to each well of the microtiter plates containing the diluted solutions of the compounds. The microtiter plates were cultivated in an incubator with a humidified atmosphere and 5% CO2 at 37° C.
(§9) Accordingly, a fraction of lymphocytes was mock-infected with the same virus preparation that was heat inactivated (30 minutes at 56° C.) prior to infection.
(§10) On each of the days 2,3 and 4 post infection one of the microtiter plates which had been established in triplicate was prepared for determination of viral replication. Viral RNA is determined within the cells whereas the viral core protein p24 was detected in the supernatant of the lymphocyte culture.
(§11) Accordingly, 150 μl of supernatant were removed from each well and transferred to the well of a microtiter plate containing 50 μl/well of SDS (sodium dodecylsulfate, 0.08%). These plates were stored frozen. 50 μl of stop solution (1% SDS, 20 mM sodium acetate, pH 5.0, and 200 μg/ml heparin) were added to the cells remaining in each well. The plates were stored frozen.
(§12) The concentration of p24 synthesized by the HIV infected cells was determined by means of a sandwich ELISA, while the concentration of viral RNA was quantitated by nucleic acid hybridisation, using a ^32 P-labelled DNA probe for the gag/pol region of the viral genome. Absolute levels of viral antigen and RNA in drug treated samples were compared with untreated, virus-infected controls and the percentage inhibition calculated.

HIV [2] = assay: HIV Suppression test, viral antigen (core protein p24, sandwich ELISA) in peripheral human lymphocytes; conditions: Human immunodeficiency virus 1, Lymphocyte, 96 h; Concn. 10 μM; read-out: % Inhibition on Day 4 after infection, Viral Antigen
Procedure: as §5, §6, §7, §8, §9, §10, §11, §12

[3] = Cytotoxicity for the cell monolayers in the FIV test; conditions: cat, crandell feline kidney cells
Procedure: as §1, §2, §3, §4

Visna Virus = assay: CPE Inhibition Test (Established Monolayer) for Lentiviruses, visna virus (strain K184) in sheep choroid plexus cells; conditions: Visna-maedi virus; visna virus strain K184, SCP cells; read-out: MIC (minimum concentration giving complete protection of the cell monolayers)
Procedure: 3×10^4 sheep choroid plexus (SCP) cells were plated into individual wells of a 96 well microtitre plate in 100 μl of Eagle's MEM with Hanks' salts containing 10% heat inactivated foetal calf serum (FCS). When monolayers had become established (after 1 or 2 days growth) they were washed with 200 μl of maintenance medium (Eagle's MEM with Hanks' salts containing 0.5% FCS) and infected with 100 μl of visna virus (strain K184) in maintenance medium (30 TCID50/ml). Test samples were diluted with maintenance medium in further 96 well microtitre plates over the range 200-0.06 μg/ml by 3-fold dilution steps. 100 μl of the diluted samples was then transferred directly onto virus-infected monolayers (final concentration range therefore 100-0.03 μg/ml) and […] containing 5% CO2 until virus-induced CPE was maximal in the untreated virus-infected controls (usually 12-14 days). The plates were fixed with formal saline and stained with crystal violet. Virus-induced CPE was then scored microscopically and the minimum concentration of sample giving complete protection of the cell monolayers (MIC) determined.

HSV-1 = assay: Plaque Reduction Test for Herpes Simplex Virus 1 (strain SC16) in MRC-5 cells; conditions: Human alphaherpesvirus 1, MRC5
Procedure: (§13) MRC-5 cells were grown to confluence in 24 well multi-dishes (well diameter=1.5 cm). The drained cell monolayers were each infected with approximately 50 infectious particles of herpes simplex virus 1 (HSV-1; strain SC16) or herpes simplex virus 2 (HSV-2; strain MS) in 100 μl of phosphate-buffered saline. The virus was adsorbed for 1 hour at room temperature. After adsorption, residual inoculum was removed from each well and replaced with 0.5 ml of Eagle's MEM containing 5% newborn calf serum and 0.9% agarose (A37). Once the agarose had set, dilutions of the test compound, which had been prepared in Eagle's MEM (containing 5% newborn calf serum), were added, each well receiving 0.5 ml of liquid overlay. The test compound was diluted to give the following series of concentrations: 200, 60, 20, 6 . . . 0.06 μg/ml; final concentrations in the assay ranged, therefore, between 100 μg/ml and 0.03 μg/ml. The infected cultures were incubated at 37° C. in a humidified atmosphere of 5% CO2 until plaques were clearly visible (usually 1 day).
(§14) Cultures from 1 and 2 were fixed in formal saline, the agarose overlays were carefully washed off, and then the cell monolayers were stained with carbol fuchsin. A stereo microscope was used to count plaques. The IC50 (concentration of drug which inhibits the number of plaques formed by 50% relative to the number of plaques observed in virus control monolayers) of the test compound was calculated. In addition, the monolayers were examined for evidence of drug-induced cytotoxicity; the minimum concentration at which cytotoxicity occurs was recorded.

VZV = assay: Plaque Reduction Test for Varicella-Zoster Virus (Ellen strain) in MRC-5 cells; conditions: Human alphaherpesvirus 3, MRC5
Procedure: as §13, with “varicella zoster” for “herpes simplex”, “(VZV; Ellen strain)” for “1 (HSV-1; strain SC16) or herpes simplex virus 2 (HSV-2; strain MS)”, “heat-inactivated foetal” for “newborn”, “(5 or 6 days).” for “(usually 1 day).”
as §14

HSV-2 = assay: Plaque Reduction Test for Herpes Simplex Virus 2 (strain MS) in MRC-5 cells; conditions: Human alphaherpesvirus 2, MRC5
Procedure: as §13, §14

CMV = assay: Plaque Reduction Test for Cytomegalovirus (AD-169 strain) in MRC-5 cells; conditions: Human betaherpesvirus 5, AD169, MRC5
Procedure: MRC-5 cells were grown to confluence in 24 well multi-dishes (well diameter=1.5 cm). The drained cell monolayers were each infected with approximately 50 infectious particles of cytomegalovirus (CMV; AD-169 strain) in 100 μl of phosphate-buffered saline. The virus was adsorbed for 1 hour at room temperature. After adsorption, residual inoculum was removed from each well and replaced with 1 ml of Eagle's MEM containing 10% heat inactivated foetal calf serum and 0.9% agarose (A37). Once the agarose had set, dilutions of the test compound, which had been prepared in Eagle's MEM (containing 10% heat-inactivated calf serum), were added, each well receiving 1 ml of liquid overlay. The test compound was diluted to give the following series of concentrations: 200, 60, 20, 6 . . . 0.06 μg/ml; final concentrations in the assay range, therefore, between 100 μg/ml and 0.03 μg/ml. The infected cultures were incubated at 37° C. in a humidified atmosphere containing 5% CO2 until plaques were clearly visible (about 12 days). The cultures are fixed in formol saline, the agarose overlays were carefully washed off, and then the cell monolayers were stained with carbol fuchsin. A stereo microscope was used to count plaques. The IC50 (concentration of drug which inhibits the number of plaques formed by 50% relative to the number of plaques observed in virus control monolayers) of the test compound was calculated. In addition, the monolayers were examined for evidence of drug-induced cytotoxicity; the minimum concentration at which cytotoxicity occurs was recorded.

[4] = no cytotoxicity noted with concentrations up to this value, read-out: cytotoxicity for the cell monolayers
[5] = read-out: concentration at which cytotoxicity was noted

| SMILES | MIC (FIV) [µg/mL] | inhibition at 10 µM (HIV [1]) [%] | inhibition at 10 µM (HIV [2]) [%] | MCC [3, 4] [µg/mL] | MIC (Visna Virus) [µg/mL] | IC50 (HSV-1) [µg/mL] | IC50 (VZV) [µg/mL] | IC50 (HSV-2) [µg/mL] | IC50 (CMV) [µg/mL] | MCC [3, 5] [µg/mL] |
| --- | --- | --- | --- | --- | --- | --- | --- | --- | --- | --- |
| Nc1ncnc2c1ncn2OCC/C=C/P(=O)(O)O [Example 3, (E)-9-(4-phosphonobut-3-enyloxy)adenine] | 10 (≈ 35.1 µM) | 44 | 47 | > 100 | 10 (≈ 35.1 µM) | – | – | – | – | – |
| Nc1ncnc2c1ncn2CC/C=C/P(=O)(O)O [Example 5, (E)-9-[4-Phosphonobut-3-enyl]adenine] | – | – | – | – | 1 (≈ 3.71 µM) | – | – | – | – | – |
| Nc1nc2c(ncn2CC/C=C/P(=O)(O)O)c(=O)[nH]1 [Example 6, (E)-9-[4-phosphonobut-3-enyl]guanine] | – | – | – | – | 0.1 (≈ 0.351 µM) | 100 (≈ 351 µM) | 55 (≈ 193 µM) | 26 (≈ 91.2 µM) | 15 (≈ 52.6 µM) | – |
| Nc1nc(N)c2ncn(CC/C=C/P(=O)(O)O)c2n1 [Example 8, (E)-2,6-Diamino-9-(4-phosphonobut-3-enyl)purine] | – | 62 | 37 | – | 0.3 (≈ 1.06 µM) | – | – | – | – | – |
| Nc1ncnc2c1ncn2OCC/C=C\P(=O)(O)O [Example 10, (Z)-9-(4-Phosphonobut-3-enyloxy) adenine] | – | – | – | – | 100 (≈ 351 µM) | – | – | – | – | – |
| Nc1nc2c(ncn2OCC/C=C\P(=O)(O)O)c(=O)[nH]1 [Example 11, (Z)-9-(4-phosphonobut-3-enyloxy)guanine] | – | 33 | 3 | – | < 0.03 | 100 (≈ 332 µM) | > 100 | > 100 | 55 (≈ 183 µM) | – |
| Nc1nc2c(ncn2OCC(/C=C/P(=O)(O)O)CO)c(=O)[nH]1 (stereo not drawn) [Example 13, (E)-9-(2-hydroxymethyl-4-phosphonobut-3-enyloxy)guanine] | 0.1 (≈ 0.302 µM) | – | – | – | – | 100 (≈ 302 µM) | 5 (≈ 15.1 µM) | 60 (≈ 181 µM) | 15 (≈ 45.3 µM) | 1 |
| Nc1ncnc2c1ncn2OCC(/C=C/P(=O)(O)O)CO (stereo not drawn) [Example 15, (E)-9-(2-hydroxymethyl-4-phosphonobut-3-enyloxy) adenine] | 30 (≈ 95.2 µM) | – | – | > 100 | – | – | – | – | – | – |
| Nc1ncnc2c1ncn2CC(/C=C/P(=O)(O)O)CO (stereo not drawn) [Example 17, (E)-9-(2-Hydroxymethyl-4-phosphonobut-3-enyl)adenine] | 0.03 (≈ 0.1 µM) | – | – | – | – | 20 (≈ 66.8 µM) | < 3 | 29 (≈ 96.9 µM) | 11 (≈ 36.8 µM) | 10 |
